Experimental findings from patent publication US8173840B2, “Compounds with high therapeutic index” (Signature R&D Holdings, LLC, priority 2003, dated 2012) are described below.

Values joined by “and” are separate entries in the source; they are usually repeats but may differ in a detail not shown here. Equal entries are not always repeated.

One data set concerns Swiss Albino Mice. Put plainly: 28-day chronic toxicity study of ibuprofen esters. To be noted: 28 days.
Data set [1] deals with male albino mice (Swiss strain). The experiment in a line: Acetylcholine induced abdominal constriction (writhe) method. The data set is classed as in vivo, mouse. To be noted: for Number of animals showing absence of single writhe (number of animals per dose = 10), One hour after dosing / Number of animals showing absence of single writhe (number of animals per dose = 10), Three hours after dosing: gavage. The procedure:
Ibuprofen (racemic mixture) and ibuprofen (S)-(+) served as reference controls.
The study was conducted at two dose levels viz. 50 mg and 100 mg/kg body weight along with a vehicle control group. At each dose level 10 animals were used. All the doses were expressed as ibuprofen molar equivalents. The doses used as well as the molar equivalents are presented below.
The efficacy in terms of antagonizing effect on acetylcholine induced single writhe at two dose levels—50.0 and 100.0 mg/kg for the three formulations and reference controls are presented below.

The next data set relates to rats. The experiment in a line: Hypolipidemic property, blood triglycerides in rats on high sugar diet. The format is in vivo, rat. To be noted: for anti-hyperlipidemic properties: compared with Fenofibrate; for Triglycerides, Day 7 / Triglycerides, Day zero / Triglycerides, Day 14: individual animals; for Triglycerides, Day 7: after 1 week high sugar diet, before drug; for Triglycerides, Day zero: before diet and drug; for Triglycerides, Day 14: drug day 7-14. The method, then:
Rats were checked for time zero triglyceride level in blood. Then the rats were set on high sugar diet, such as 30% sucrose in water for 1 week. Then at the end of 1 week, rats were tested for triglycerides, and were put on normal diet. From day 7-14 the rats were administered either test or control drug. Triglycerides were again tested on the 14th day in rat blood.

[2] abbreviates: 50.0 mg/kg in terms of Ibuprofen.
Setting [3] is: 100.0 mg/kg in terms of Ibuprofen.

Text for Swiss Albino Mice: Randomization was done by the method of stratified randomization procedure using SAS software program (Version 8.2) with stratification by bodyweight.
The duration of dosing was 28 days. All the animals were daily tested until the end of the study for the presence/absence of clinical symptoms of toxicity. Cage side observations included changes in the skin, eyes, posture, gait, respiration and behavior pattern. The incidence of twitching, tremors, convulsions, salivation, diarrhea and death if any, were also recorded.

Consider `CC(C)Cc1ccc(C(C)C(=O)O[C@H]2CN[C@H](C(=O)O)C2)cc1` (mixture of isomers) [(±)-Ibuprofen-L-hydroxyproline ester, 4(R)-[2-(4-Isobutyl-phenyl)-propionyloxy]-pyrrolidine-2(S)-carboxylic acid] [listing 1 of 2 here], for which the “No of animals survived” value in the data set on Swiss Albino Mice (10 animals per group) is 9. The animals that died in the data set on Swiss Albino Mice (both sexes) was found to be 10%. The Mortality in the data set with Swiss Albino Mice (Female) is on record as 1/5; with Swiss Albino Mice (Male) it was “Nil”. The “Average Change In body Weight” value in the data set on Swiss Albino Mice (surviving animals) stood at 1.43 gms. In addition, the “Percentage Change of body weight” value with Swiss Albino Mice (surviving animals) is on record as 5.75%.

Turning to `CC(C)Cc1ccc(C(C)C(=O)OC[C@H](N)C(=O)O)cc1.Cl` (mixture of isomers) [(±)-Ibuprofen-L-serine ester, 2(S)-Amino-3-[2(R,S)-(4-isobutylphenyl)-propionyloxy]-propionic acid, hydrochloride], in data set [1] (setting [2]), the “Number of animals showing absence of single writhe (number of animals per dose = 10), One hour after dosing” value was 4 and the “Number of animals showing absence of single writhe (number of animals per dose = 10), Three hours after dosing” value worked out at 2. In addition, in data set [1] (setting [3]), the “Number of animals showing absence of single writhe (number of animals per dose = 10), One hour after dosing” value amounted to 6 and the “Number of animals showing absence of single writhe (number of animals per dose = 10), Three hours after dosing” value came to 4.

On to `CC(C)Cc1ccc(C(C)C(=O)O[C@H]2CN[C@H](C(=O)O)C2)cc1` (mixture of isomers) [(±)-Ibuprofen-L-hydroxyproline ester, 4(R)-[2-(4-Isobutyl-phenyl)-propionyloxy]-pyrrolidine-2(S)-carboxylic acid] [listing 2 of 2 here], for which, in data set [1] (setting [2]), the “Number of animals showing absence of single writhe (number of animals per dose = 10), One hour after dosing” value came to 5 and the “Number of animals showing absence of single writhe (number of animals per dose = 10), Three hours after dosing” value came to 4. In data set [1] (setting [3]), the “Number of animals showing absence of single writhe (number of animals per dose = 10), One hour after dosing” value worked out at 7 and the “Number of animals showing absence of single writhe (number of animals per dose = 10), Three hours after dosing” value turned out to be 7. Further, the “antagonizing the acetylcholine induced writhe, clinical observation” value in data set [1] (compared to other formulations, Ibuprofen (racemic) and Ibuprofen (S)-(+)) is given as “more effective in antagonizing the acetylcholine induced writhe”.

Consider `CC(C)(Oc1ccc(C(=O)c2ccc(Cl)cc2)cc1)C(=O)OC1CN[C@H](C(=O)O)C1.Cl` (stereo partly drawn) [Fen-HP Ester, L-hydroxyproline-fenofibric acid ester, hydrochloride], for which, in the data set on rats (Dose 25 mg/kg), the “% Change From day 0” value is −32.92%, the “% Change from day 7” value was −59.45%, the “Absolute Change from day 0” value was −16 and the “Absolute Change from day 7” value was −47.8. In the data set with rats (Dose 50 mg/kg), the “% Change From day 0” value is on record as −49.31%, the “% Change from day 7” value is given as −65.80%, the “Absolute Change from day 0” value is recorded as −35.8 and the “Absolute Change from day 7” value is listed as −70.8. Moreover, in the data set on rats (Dose 100 mg/kg), the “% Change From day 0” value was −7.52%, the “% Change from day 7” value is given as −72.82%, the “Absolute Change from day 0” value was −3.4 and the “Absolute Change from day 7” value is reported as −112.

For the compound `C[C@@H](OC(=O)C(C)(C)Oc1ccc(C(=O)c2ccc(Cl)cc2)cc1)[C@H](N)C(=O)O.Cl` [Fen-T Ester, L-threonine-fenofibric acid ester, hydrochloride], in the data set on rats (Dose 25 mg/kg), the “% Change From day 0” value is −23.21%, the “% Change from day 7” value is recorded as −37.68%, the “Absolute Change from day 0” value was −18.2 and the “Absolute Change from day 7” value was −36.4. In the data set on rats (Dose 50 mg/kg), the “% Change From day 0” value was −35.00%, the “% Change from day 7” value is given as −63.71%, the “Absolute Change from day 0” value is recorded as −23.8 and the “Absolute Change from day 7” value is on record as −77.6. In the data set on rats (Dose 100 mg/kg), the “% Change From day 0” value is −68.45%, the “% Change from day 7” value was −75.04%, the “Absolute Change from day 0” value is −63.8 and the “Absolute Change from day 7” value is recorded as −88.4. Moreover, the “anti-hyperlipidemic properties” value in the data set on rats (listed as Fenofibric Acid-L-Threonine ester, hydrochloride) was “overall superior anti-hyperlipidemic properties”. Further, in the data set on rats (listed as L-Threonine ester, hydrochloride), the “anti-hyperlipidemic properties” value is recorded as “dose dependent decrease in triglycerides”.

As to `CC(C)OC(=O)C(C)(C)Oc1ccc(C(=O)c2ccc(Cl)cc2)cc1` [Fenofibrate, reference compound], the “Triglycerides, Day 7” value in the data set with rats (50 mg/kg group) is 150 mg/dL; in the data set on rats (200 mg/kg group), 90 mg/dL and 106 mg/dL and 125 mg/dL. In addition, the “Triglycerides, Day zero” value is 95 mg/dL and 92 mg/dL and 80 mg/dL in the data set on rats (50 mg/kg group); 110 mg/dL and 115 mg/dL and 96 mg/dL with rats (100 mg/kg group); 144 mg/dL and 56 mg/dL and 58 mg/dL in the data set with rats (200 mg/kg group). For the same compound, the “Triglycerides, Day 14” value is 101 mg/dL and 76 mg/dL and 73 mg/dL in the data set with rats (50 mg/kg); 62 mg/dL and 69 mg/dL and 93 mg/dL in the data set with rats (100 mg/kg); 48 mg/dL and 51 mg/dL and 38 mg/dL with rats (200 mg/kg). In addition, the “% Change From day 0” value in the data set on rats (Dose 25 mg/kg) is reported as −15.21%; with rats (Dose 50 mg/kg), −22.95%; with rats (Dose 100 mg/kg) it was −61.26%. In addition, the “% Change from day 7” value is −45.86% in the data set with rats (Dose 25 mg/kg), −66.06% in the data set with rats (Dose 50 mg/kg) and −73.51% with rats (Dose 100 mg/kg). The “Absolute Change from day 0” value is −10.8 with rats (Dose 25 mg/kg), −13.4 in the data set with rats (Dose 50 mg/kg) and −40.8 in the data set on rats (Dose 100 mg/kg). Further, the figures for the “Absolute Change from day 7” value with rats (Dose 25 mg/kg), with rats (Dose 50 mg/kg) and in the data set with rats (Dose 100 mg/kg) were −51, −87.6 and −71.6, respectively.

Consider `CC(C)Cc1ccc([C@H](C)C(=O)O)cc1` [Ibuprofen (S)-(+), reference compound], for which the “Number of animals showing absence of single writhe (number of animals per dose = 10), One hour after dosing” value was determined as 5 in data set [1] (setting [2]) and 6 in data set [1] (setting [3]). Also, the figures for the “Number of animals showing absence of single writhe (number of animals per dose = 10), Three hours after dosing” value in data set [1] (setting [2]) and in data set [1] (setting [3]) were 1 and 6, respectively.

Take `CC(C)(Oc1ccc(C(=O)c2ccc(Cl)cc2)cc1)C(=O)OC[C@H](N)C(=O)O.Cl` [L-Serine Ester of Fenofibric Acid, L-serine-fenofibric acid ester, hydrochloride]: the “Triglycerides, Day 7” value in the data set with rats (50 mg/kg group, hydrochloride) was 148 mg/dL and 145 mg/dL and 127 mg/dL; with rats (100 mg/kg group, hydrochloride) it was 100 mg/dL and 183 mg/dL; with rats (200 mg/kg group, hydrochloride) it was 240 mg/dL and 158 mg/dL and 77 mg/dL. For the same compound, the “Triglycerides, Day zero” value with rats (50 mg/kg group, hydrochloride) was 88 mg/dL and 94 mg/dL and 100 mg/dL; in the data set on rats (100 mg/kg group, hydrochloride), 109 mg/dL and 129 mg/dL and 71 mg/dL; with rats (200 mg/kg group, hydrochloride) it was 74 mg/dL and 81 mg/dL and 42 mg/dL. The “Triglycerides, Day 14” value in the data set with rats (50 mg/kg, hydrochloride) was 86 mg/dl (2×) and 73 mg/dl; with rats (100 mg/kg, hydrochloride) it was 46 mg/dL and 69 mg/dL and 47 mg/dL; in the data set on rats (200 mg/kg, hydrochloride) it was 83 mg/dL and 61 mg/dL and 46 mg/dL. For the same compound, the “% Change From day 0” value in the data set with rats (Dose 25 mg/kg) is listed as −61.64%; with rats (Dose 50 mg/kg), −44.10%; in the data set on rats (Dose 100 mg/kg) it was −33.23%. The “% Change from day 7” value with rats (Dose 25 mg/kg) was −72.82%; with rats (Dose 50 mg/kg) it was −67.90%; with rats (Dose 100 mg/kg), −63.27%. Also, the “Absolute Change from day 0” value is on record as −54 in the data set with rats (Dose 25 mg/kg), −31.4 in the data set with rats (Dose 50 mg/kg) and −20.8 with rats (Dose 100 mg/kg). Also, the “Absolute Change from day 7” value in the data set on rats (Dose 25 mg/kg) is reported as −90; in the data set with rats (Dose 50 mg/kg), −84.2; in the data set with rats (Dose 100 mg/kg), −72.
